Columns and labels:
[1] = Tsuzuki et al, J. of chemical and engineering data (1971), 16(1), 108-11; cited from earlier work
[2] = system: panel of 15 subjects all of whom were sweet sensitive; assay: Sensory ranking to find the sucrose concentration iso-intense to aqueous para-ethoxy benzonitrile (R-index analysis); type: in vivo
Protocol: The test samples contained para-ethoxy benzonitrile in water. The control samples were aqueous solutions of sucrose at 0.5%, 1.0%, 1.5% and 2.0%. The sensory evaluations were conducted as follows. All samples were presented at ambient temperature in 15 ml aliquots at random to a panel of 15 subjects all of whom were sweet sensitive of varying sensitivity. After tasting each sample, panelists rinsed their mouths thoroughly with water at ambient temperature prior to tasting subsequent samples. The tastings were carried out in two replications in one session. Panelists were asked to rank the solutions whilst wearing nose plugs. They were asked to rank from least sweet to most sweet.
(§1) The data were subjected to an R-Index analysis. […] An R-index from 50% to the critical value means the sweetness enhancer sample has an equivalent sweetness to the compared sucrose sample.

[3] = system: panel of 15 subjects all of whom were sweet sensitive; assay: Comparative sensory ranking of sucrose solutions against 7% sucrose + para-ethoxy benzonitrile (R-index analysis); type: in vivo
Protocol: The test samples (“Test”) contained 7% sucrose and 20 ppm of para-ethoxy benzonitrile in water. The test samples were compared with control samples containing 7, 8, 9, and 10% sucrose in water. The sensory evaluations were conducted as follows. All samples were presented at ambient temperature in 15 ml aliquots at random to a panel of 15 subjects all of whom were sweet sensitive of varying sensitivity. After tasting each sample, the mouth was rinsed thoroughly with water at ambient temperature prior to tasting the next sample. The tastings were carried out in two replications in one session. Panelists were asked to rank the solutions whilst wearing nose plugs. They were asked to rank from least sweet to most sweet.
as §1

CCOc1ccc(C#N)cc1 [ethoxy benzonitrile]
taste as described [1]: sweet or sweetish

CCOc1ccc(C#N)cc1 [para-ethoxy benzonitrile]
Significantly different (p < 0.05) ([2]; 10 ppm in water vs. 0.5% sucrose): No
R-index ([2]; 10 ppm in water vs. 0.5% sucrose, critical value 64.61%): 51%
iso sweet sucrose solution ([2]; 10 ppm solution in water): 0.5%
Significantly different (p < 0.05) ([2]; 20 ppm in water vs. 0.5% sucrose): Yes
R-index ([2]; 20 ppm in water vs. 0.5% sucrose, critical value 64.61%): 81%
Significantly different (p < 0.05) ([2]; 20 ppm in water vs. 1.0% sucrose): Yes
R-index ([2]; 20 ppm in water vs. 1.0% sucrose, critical value 35.39%): 30%
iso-sweet sucrose solution, by interpolation ([2]; 20 ppm solution in water): 0.75%
perceived sweetness relative to sucrose ([2]; 20 ppm solution vs. 0.5% sucrose): significantly sweeter
perceived sweetness relative to sucrose ([2]; 20 ppm solution vs. 1% sucrose): significantly less sweet
sweetness enhancement (additive or synergistic) ([3]; 20 ppm in 7% sucrose, Examples 1 and 2 taken together): synergistic effect
iso-sweet sucrose, by interpolation ([3]; Test (7% sucrose + 20 ppm in water)): 8.5%
Significantly different (p < 0.05) ([3]; Test (7% sucrose + 20 ppm in water) vs. 7% sucrose): Yes
R-index ([3]; Test (7% sucrose + 20 ppm in water) vs. 7% sucrose, critical value 64.61%): 95%
Significantly different (p < 0.05) ([3]; Test (7% sucrose + 20 ppm in water) vs. 8% sucrose): Yes
R-index ([3]; Test (7% sucrose + 20 ppm in water) vs. 8% sucrose, critical value 64.61%): 73%
Significantly different (p < 0.05) ([3]; Test (7% sucrose + 20 ppm in water) vs. 9% sucrose): Yes
R-index ([3]; Test (7% sucrose + 20 ppm in water) vs. 9% sucrose, critical value 35.39%): 28%
Significantly different (p < 0.05) ([3]; Test (7% sucrose + 20 ppm in water) vs. 10% sucrose): Yes
R-index ([3]; Test (7% sucrose + 20 ppm in water) vs. 10% sucrose, critical value 35.39%): 10%
iso-sweet sucrose expected were the effect merely additive ([3]; Test (7% sucrose + 20 ppm in water), from the data of Example 1): 7.75%
perceived sweetness relative to sucrose ([3]; Test (7% sucrose + 20 ppm) vs. 7 and 8% sucrose solutions): significantly sweeter
perceived sweetness relative to sucrose ([3]; Test (7% sucrose + 20 ppm) vs. 9% and 10% sucrose): less sweet

Reference: patent publication US20120288604A1, “Organic Compounds” (Givaudan S.A., priority 2009, published 2012)
